# Results published in PubChem BioAssay (NCI).
#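 Grown in 96-well plates, cells were treated for 48 hours with each compound at five concentrations. Insufficient inhibition: endpoint recorded as highest concentration tested. TGI denotes the concentration required for complete inhibition of growth.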
# Legend:
# Experiment in all cases: NCI anticancer screen, dose series, 48 h
# OVCAR-8 ovarian = test system: OVCAR-8 ovarian
# KM20L2 colon = test system: KM20L2 colon
# KM12 colon = test system: KM12 colon
# UACC-257 melanoma = test system: UACC-257 melanoma
# U251 CNS = test system: U251 CNS
# A549 NSCLC = test system: A549 NSCLC
# UO-31 renal = test system: UO-31 renal
# SK-MEL-2 melanoma = test system: SK-MEL-2 melanoma
# HCT-116 colon = test system: HCT-116 colon
# SNB-78 CNS = test system: SNB-78 CNS
# SF-295 CNS = test system: SF-295 CNS
# NCI-H460 lung = test system: NCI-H460 lung
# TK-10 renal = test system: TK-10 renal
# OVCAR-4 ovarian = test system: OVCAR-4 ovarian
# UACC-62 melanoma = test system: UACC-62 melanoma
# SW-620 colon = test system: SW-620 colon
# M14 melanoma = test system: M14 melanoma
# HT29 colon = test system: HT29 colon
# SK-MEL-28 melanoma = test system: SK-MEL-28 melanoma
# LXFL 529 NSCLC = test system: LXFL 529 NSCLC
# SNB-19 CNS = test system: SNB-19 CNS
# HOP-92 NSCLC = test system: HOP-92 NSCLC
# EKVX NSCLC = test system: EKVX NSCLC
# IGROV1 ovarian = test system: IGROV1 ovarian
# NCI-H226 lung = test system: NCI-H226 lung
# HL-60(TB) leukemia = test system: HL-60(TB) leukemia
# HOP-62 NSCLC = test system: HOP-62 NSCLC
# COLO 205 colon = test system: COLO 205 colon
# DLD-1 colon = test system: DLD-1 colon
# SNB-75 CNS = test system: SNB-75 CNS
# ACHN renal = test system: ACHN renal
# SF-268 CNS = test system: SF-268 CNS
# LOX IMVI melanoma = test system: LOX IMVI melanoma
# MALME-3M melanoma = test system: MALME-3M melanoma
# HCC-2998 colon = test system: HCC-2998 colon
# MOLT-4 leukemia = test system: MOLT-4 leukemia
# CCRF-CEM leukemia = test system: CCRF-CEM leukemia
# XF 498 CNS = test system: XF 498 CNS
# M19-MEL melanoma = test system: M19-MEL melanoma
# SN12C renal = test system: SN12C renal
# OVCAR-5 ovarian = test system: OVCAR-5 ovarian
# SK-MEL-5 melanoma = test system: SK-MEL-5 melanoma
# RPMI-8226 leukemia = test system: RPMI-8226 leukemia
# RXF 393 renal = test system: RXF 393 renal
# NCI-H23 lung = test system: NCI-H23 lung
# OVCAR-3 ovarian = test system: OVCAR-3 ovarian
# 786-0 renal = test system: 786-0 renal
# DMS 114 small cell lung = test system: DMS 114 small cell lung
# RXF-631 renal = test system: RXF-631 renal
# A498 renal = test system: A498 renal
# NCI-H522 lung = test system: NCI-H522 lung
# CAKI-1 renal = test system: CAKI-1 renal
# SR leukemia = test system: SR leukemia
# SF-539 CNS = test system: SF-539 CNS
# SK-OV-3 ovarian = test system: SK-OV-3 ovarian
# K-562 leukemia = test system: K-562 leukemia
# DMS 273 small cell lung = test system: DMS 273 small cell lung
compound,measurement,setting,value
NC(=S)N/N=C(/CC(=O)c1ccc([N+](=O)[O-])cc1)C(=O)Nc1ncc([N+](=O)[O-])s1,TGI,OVCAR-8 ovarian,> 100 µM
same,TGI,KM20L2 colon,> 100 µM
same,TGI,KM12 colon,> 100 µM
same,TGI,UACC-257 melanoma,> 100 µM
same,TGI,U251 CNS,> 100 µM
same,TGI,A549 NSCLC,> 100 µM
same,TGI,UO-31 renal,> 100 µM
same,TGI,SK-MEL-2 melanoma,> 100 µM
same,TGI,HCT-116 colon,> 100 µM
same,TGI,SNB-78 CNS,> 100 µM
same,TGI,SF-295 CNS,> 100 µM
same,TGI,NCI-H460 lung,> 100 µM
same,TGI,TK-10 renal,> 100 µM
same,TGI,OVCAR-4 ovarian,> 100 µM
same,TGI,UACC-62 melanoma,> 100 µM
same,TGI,SW-620 colon,> 100 µM
same,TGI,M14 melanoma,> 100 µM
same,TGI,HT29 colon,> 100 µM
same,TGI,SK-MEL-28 melanoma,> 100 µM
same,TGI,LXFL 529 NSCLC,> 100 µM
same,TGI,SNB-19 CNS,> 100 µM
same,TGI,HOP-92 NSCLC,> 100 µM
same,TGI,EKVX NSCLC,> 100 µM
same,TGI,IGROV1 ovarian,> 100 µM
same,TGI,NCI-H226 lung,> 100 µM
same,TGI,HL-60(TB) leukemia,> 100 µM
same,TGI,HOP-62 NSCLC,> 100 µM
same,TGI,COLO 205 colon,> 100 µM
same,TGI,DLD-1 colon,> 100 µM
same,TGI,SNB-75 CNS,> 100 µM
same,TGI,ACHN renal,> 100 µM
same,TGI,SF-268 CNS,> 100 µM
same,TGI,LOX IMVI melanoma,> 100 µM
same,TGI,MALME-3M melanoma,> 100 µM
same,TGI,HCC-2998 colon,> 100 µM
same,TGI,MOLT-4 leukemia,> 100 µM
same,TGI,CCRF-CEM leukemia,> 100 µM
same,TGI,XF 498 CNS,> 100 µM
same,TGI,M19-MEL melanoma,> 100 µM
same,TGI,SN12C renal,> 100 µM
same,TGI,OVCAR-5 ovarian,> 100 µM
same,TGI,SK-MEL-5 melanoma,> 100 µM
same,TGI,RPMI-8226 leukemia,> 100 µM
same,TGI,RXF 393 renal,> 100 µM
same,TGI,NCI-H23 lung,> 100 µM
same,TGI,OVCAR-3 ovarian,> 100 µM
same,TGI,786-0 renal,> 100 µM
same,TGI,DMS 114 small cell lung,> 100 µM
same,TGI,RXF-631 renal,> 100 µM
Cc1cc2c3ccccc3n(C)c2c2c1C(=O)c1ccccc1C2=O,TGI,OVCAR-8 ovarian,76.2 µM
same,TGI,KM12 colon,> 100 µM
same,TGI,UACC-257 melanoma,43.3 µM
same,TGI,A498 renal,> 100 µM
same,TGI,NCI-H522 lung,49.2 µM
same,TGI,A549 NSCLC,58 µM
same,TGI,CAKI-1 renal,54.8 µM
same,TGI,UO-31 renal,27.4 µM
same,TGI,SK-MEL-2 melanoma,41.3 µM
same,TGI,SR leukemia,22.5 µM
same,TGI,HCT-116 colon,32.4 µM
same,TGI,SF-295 CNS,41.2 µM
same,TGI,TK-10 renal,81.3 µM
same,TGI,OVCAR-4 ovarian,51.4 µM
same,TGI,UACC-62 melanoma,57.3 µM
same,TGI,SW-620 colon,> 100 µM
same,TGI,M14 melanoma,40.9 µM
same,TGI,HT29 colon,73.2 µM
same,TGI,SK-MEL-28 melanoma,65 µM
same,TGI,LXFL 529 NSCLC,35.5 µM
same,TGI,SNB-19 CNS,80.3 µM
same,TGI,HOP-92 NSCLC,35 µM
same,TGI,EKVX NSCLC,> 100 µM
same,TGI,SF-539 CNS,> 100 µM
same,TGI,IGROV1 ovarian,54.3 µM
same,TGI,NCI-H226 lung,30.5 µM
same,TGI,HL-60(TB) leukemia,27.7 µM
same,TGI,HOP-62 NSCLC,53.6 µM
same,TGI,COLO 205 colon,56.1 µM
same,TGI,DLD-1 colon,31.8 µM
same,TGI,SNB-75 CNS,> 100 µM
same,TGI,SF-268 CNS,> 100 µM
same,TGI,MALME-3M melanoma,35.4 µM
same,TGI,SK-OV-3 ovarian,61.7 µM
same,TGI,HCC-2998 colon,43.6 µM
same,TGI,MOLT-4 leukemia,27.4 µM
same,TGI,K-562 leukemia,55.1 µM
same,TGI,DMS 273 small cell lung,50.1 µM
same,TGI,CCRF-CEM leukemia,25.5 µM
same,TGI,XF 498 CNS,35.7 µM
same,TGI,M19-MEL melanoma,10.3 µM
same,TGI,SN12C renal,41.7 µM
same,TGI,NCI-H23 lung,44 µM
same,TGI,OVCAR-3 ovarian,54.1 µM
same,TGI,786-0 renal,34.3 µM
same,TGI,DMS 114 small cell lung,46 µM
same,TGI,RXF-631 renal,98.5 µM
